Laboratory results from patent US20120308567A1, “USE OF TYROSINE KINASE INHIBITORS FOR TREATMENT OF PROLACTINOMA” (CEDARS-SINAI MEDICAL CENTER, priority 2010, published 2012).

What was measured:
[1] = system: GH3 cells stably expressing HER2CA; test: Realtime PCR of PRL and GH mRNA in GH3 stable transfectants; type: cell-based, rat; details: each respective transfectant (pcDNA3, HER2CA); 5 nM EGF or 6 nM HRG
Experimental: A. […] C. GH and PRL secretion in the culture medium determined by RIA. Hormone secretion levels were normalized for cell numbers, Values are mean±SEM. *p<0.05, **p<0.01. […] GH3 rat lacto-somatotroph tumor cells secreting PRL and GH were purchased from the American Type Culture Collection. HER2CA cells were generated by transfection with […]) purchased from Addgene (Addgene plasmid 16259). Stable colonies were selected in the presence of 500 μg/ml G418 (Invitrogen). A vector control cell line pcDNA3 was simultaneously established by transfecting pcDNA3 that lacked inserted cDNA. […] After synchronization by serum starvation (medium containing 0.2% bovine serum albumin for 24 h), cells with treatment agents was grown in fresh serum-depleted medium (0.2% bovine serum albumin), and samples collected at the indicated times. Total RNA was extracted with Trizol reagent (Invitrogen) according to instructions of the manufacturer. The amount and the integrity of RNA were assessed by measurement of absorbance at 260 and 280 nm. Total RNA was reverse-transcribed into first-strand cDNA using iScript cDNA synthesis kit (Bio-Rad Laboratories, Inc.) according to the manufacturer. Quantitative PCR reactions were carried out in the iQ5 Multicolor Real-time PCR Detection System (Bio-Rad Laboratories, Inc.) as described (8). […] Primer sequences (Invitrogen) were [NT] rRNA forward ([…] rRNA reverse ([NT] (human (3-actin [NT] (human (3-actin […]).

[2] = system: GH3 cells stably expressing HER2CA; test: Soft agarose colony-forming assay, HER2CA transfectants; type: cell-based, rat; details: HER2CA transfectants, 10 d after seeding
Experimental: B. GH3 cells stably expressing HER2CA or pcDNA3 were plated (4,000 per well) in 96 well plates for the indicated times, and WST assay performed. C. […] Values are mean±SEM. *p<0.05, ** p<0.01, ^‡p<0.05 vs pcDNA3 control, ^†p<0.05 vs HER2CA control, ^‡‡p<0.05 vs pcDNA3 control, ^††p<0.05 vs HER2CA control.
Base layers consisting of growth medium containing 0.6% low-melting point agarose (Invitrogen) were poured onto 6-well plates and allowed to solidify. Cells (8×10^3 per well) were plated in triplicate in top layers consisting of growth medium containing 0.3% agarose. Seven to ten days later, cells were stained with 0.2% iodonitrotetrazolium chloride (Invitrogen), and colonies composed of 50 cells were counted manually in 5 randomly selected fields.

[3] = system: GH3 cells stably expressing HER2CA; test: RIA of PRL and GH secretion in culture medium of GH3 stable transfectants; type: cell-based, rat; details: each respective transfectant (pcDNA3, HER2CA); 5 nM EGF or 6 nM HRG
Experimental: μM) for the indicated times, and Realtime PCR analysis performed. C. GH and PRL secretion in the culture medium determined by RIA. Hormone secretion levels were normalized for cell numbers, Values are mean±SEM. *p<0.05, **p<0.01.
GH3 rat lacto-somatotroph tumor cells secreting PRL and GH were purchased from the American Type Culture Collection. HER2CA cells were generated by transfection with pcDNA3-HER2CA (V654E) purchased from Addgene (Addgene plasmid 16259). Stable colonies were selected in the presence of 500 μg/ml G418 (Invitrogen). A vector control cell line pcDNA3 was simultaneously established by transfecting pcDNA3 that lacked inserted cDNA. After selection and propagation of stable transfectants, cells were cultured in DMEM/F12 medium containing 15% horse serum, 2.5% FBS, penicillin/streptomycin, and 500 μg/m G418. After synchronization by serum starvation (medium containing 0.2% bovine serum albumin for ˜24 h), cells with treatment agents was grown in fresh serum-depleted medium (0.2% bovine serum albumin), and samples collected at the indicated times.
RIAs for rat GH and PRL were performed in duplicate, using reagents provided by the National Hormone and Pituitary Program, National Institute of Diabetes and Digestive and Kidney Diseases (Harbor-UCLA Medical Center, Torrance, Calif., USA). Iodination of GH and PRL (5 μg) with iodine-125 (500 μCi) (PerkinElmer life & Analytical Sciences, Boston, Mass., USA) mixed with 0.1 mg Iodo-Gen (Pierce, Rockford, Ill.) was performed using 10-ml columns prepared by G-75 Sephadex (Sigma Chemical Co.). Low interspecies cross-reactivity of the GH and PRL assays were previously shown (8).

human prolactinoma cells = test: Realtime PCR of PRL in primary human prolactinoma cell cultures; type: cell-based; details: Tumor B; 0.1-5 μM, 24 hr, in the absence of added EGF
Experimental: A, B, D, and E. After trans-sphenoidal surgery of human prolactinomas, tumor cells were cultured. […] PRL levels in culture media were measured using RIA (B). H&E and PRL staining of tumor and confocal immunocytochemistry of EGFR and HER2 (Tumor A) (C), or for Tumor B (F). Magnification of these figures was 100×. […] PRL levels in culture media were measured using RIA (E). Prolactinoma cells (Tumor B) were treated with U0126 (0.1-5 μM) for 24 hr, and Realtime PCR of PRL performed (G).
Total RNA was extracted with Trizol reagent (Invitrogen) according to instructions of the manufacturer. The amount and the integrity of RNA were assessed by measurement of absorbance at 260 and 280 nm. Total RNA was reverse-transcribed into first-strand cDNA using iScript cDNA synthesis kit (Bio-Rad Laboratories, Inc.) according to the manufacturer. Quantitative PCR reactions were carried out in the iQ5 Multicolor Real-time PCR Detection System (Bio-Rad Laboratories, Inc.) as described (8). Certified RT^2 primer assays for rat GH, PRL and human PRL were purchased from SuperArray. Primer sequences (Invitrogen) were 5′-[…]-3′ (18S rRNA forward (F)), 5′-[…]-3′ (18S rRNA reverse (R)), 5′-[…]-3′ (human (3-actin F), 5′-[…]-3′ (human (3-actin R), 5′-[…]-3′ (human GAPDH F), 5′-[…]-3′ (human GAPDH R).
Human prolactinoma tissues were obtained at the time of surgery (Pituitary Center, Cedars-Sinai Medical Center) and transferred in 0.3% BSA containing DMEM according to an IRB-approved protocol. After washing with medium, tumor tissues were chopped with a sterile scalpel into approximately 1-2 mm pieces. Tissues were rinsed and digested with DMEM containing 0.3% BSA, 0.35% collagenase, and 0.15% hyaluronidase at 37° C. for 30 min The mixture was centrifuged at 1,500 rpm for 5 min at 4° C., and the cell pellet resuspended in an appropriate volume of culture medium containing 10% FBS and antibiotics in 48 well plates. After 24 hr incubation with serum depleted starvation medium (DMEM with 0.3% BSA), treatment agents were added with fresh serum-depleted medium (0.3% BSA), and medium collected for RIA. RNA was extracted after 24 hr treatment. Medium was also collected at baseline. To normalize for cell number effect, the PRL value of treated medium was divided by that of pre-treatment starvation medium to obtain a treated value for each well (n=4).

Compound	induction of PRL expression [1]	enhancement of colony formation in soft agar [2]	induction of PRL secretion [3]	suppression of human PRL expression (human prolactinoma cells)
EGF: epidermal growth factor, ErbB family receptor ligand, from Sigma (NSDSECPLSHDGYCLHDGVCMYIEALDKYACNCVVGYIGERCQYRDLKWWELR; Epidermal growth factor; UniProt P01133 971-1023, looked up)	approximately 2 fold	~8 fold	approximately 2 fold	
N#CC(=C(/N)Sc1ccccc1N)/C(C#N)=C(\N)Sc1ccccc1N [U0126]				~55%
